Measurements from patent US9750805B2, “Calcium flux agonists and methods therefor” (Nant Holdings IP, LLC, priority 2012, dated 2017).

Key:
[1] = tested on: κB-LUC THP-1 reporter cells; test: κB-LUC THP-1 reporter response to S. aureus conditioned/spent media (FIGS. 5B-5E); type: cell-based, human; details: 1:100 conditioned media, 18 hours; 20 nM thapsigargin, 316 nM A23187, 1 μM ionomycin vs DMSO vehicle
From the text: Briefly, a culture of logarithmically dividing S. aureus was washed three times with RPMI 1640 (Cellgro). Concurrently, THP-1 κB-LUC THP-1's (THP-1 cells containing the stable integration of a NF-κB luciferase reporter gene) cultured in RPMI 1640 (Cellgro) supplemented with 10% FBS (Thermo HyClone, Waltham Mass.) and 1% penicillin-streptomycin-fungizone (Thermo HyClone) were washed three times with RPMI 1640 (Cellgro) and transferred to the bottom compartment of a 24-well 0.4 μm cutoff transwell plate (Corning) at a concentration of 1.2 million/mL. Dilutions of the washed S. aureus culture were then added to the top chamber of the transwell system at the indicated initial multiplicities of infection (MOI). The cells were incubated for 18 hours at 37° C. at which time aliquots of 60,000 cells were transferred to wells in a 384-well white bottom plate (Thermo). To evaluate luciferase gene expression, Bright-Glo Luciferase Assay Reagent (Promega) was added to each well and the plates were analyzed for luciferase activity using the Perkin Elmer TopCount NXT system (Perkin Elmer).
To determine whether the recognition of S. aureus-produced products could be further augmented through modulation of calcium flux, κB-LUC THP-1 reporter cells were incubated in the presence of a 1:100 dilution (V/V) of sterile filtered S. aureus conditioned (i.e. spent) or unused sterile media and treated with a suboptimal dose (20 nM) of thapsigargin or dimethyl sulfoxide (DMSO) vehicle control as described above. Briefly, conditioned media was produced by culturing S. aureus in RPMI with 10% fetal bovine serum overnight in a shaking incubator at 37° C. following which the bacteria were pelleted by centrifugation and the supernatants filter-sterilized using a 0.2 μm filter (VWR Radnor PA). The κB-LUC THP-1 cells were incubated in the presence of the conditioned/spent media for 18 hours prior to luciferase assay as described above.

[2] = tested on: κB-LUC THP-1 (NF-κB Luciferase Reporter); test: NF-κB activation, luciferase reporter, dose response without added ligand; type: cell-based, human; details: κB-LUC THP-1, 24 hours, increasing concentrations, no added ligand; FIGS. 1A-1C
From the text: (§1) The inventors performed several studies to identify the effect of calcium flux agonists on various components of an immune response, and particularly on the effect of calcium flux agonists on IL-8 production and activation of NF-κB signaling. […] The dose response is observed over relatively large windows for ionophores (e.g., A23187 and ionomycin) and over at least two orders of magnitude for SERCA inhibitors (e.g., thapsigargin).
(§2) More specifically, the dose response of ionophores on NF-κB and IL-8 is shown in FIGS. 1A-1B using a monocyte-derived cell line to treatment and A23187 and ionomycin in the absence of externally added TLR or NOD ligands. […] FIG. 1C depicts the dose response to thapsigargin on NF-κB and IL-8.
NF-κB activation: A titration of thapsigargin (A.G. Scientific), ionomycin, and the calcium ionophore A23187 was added to a 96-well plate (Thermo Matrix) seeded with 150,000 THP-1 κB-LUC THP-1's (THP-1 cells containing the stable integration of a NF-κB Luciferase Reporter) grown in RPMI 1640 (Cellgro, Herndon VA) supplemented with 10% FBS (Thermo HyClone) and 1% penicillin-streptomycin-fungizone (Thermo HyClone). 24 hours after addition, 25 uL of Bright-Glo Luciferase Assay System (Promega, Madison Wis.) was added to each well and analyzed for luciferase activity using Perkin Elmer TopCount NXT (Perkin Elmer, Waltham Mass.).

THP-1 cells = test: Human IL-8 activity, dose response of calcium flux agonists without added TLR or NOD ligand; type: cell-based; details: 24 hours, increasing concentrations, no added TLR or NOD ligand, FIGS. 1A-1C
From the text: as §1, §2
Human IL-8 activity: A titration of thapsigargin (A.G. Scientific, San Diego Calif.), ionomycin (Sigma-Aldrich, St. Louis Mo.), and the calcium ionophore A23187 (Sigma-Aldrich) was added to a 96-well plate (Thermo Matrix, Waltham Mass.) seeded with 150,000 THP-1 cells (ATCC TIB-202) grown in RPMI 1640 (Cellgro, Herndon VA) supplemented with 10% FBS (Thermo HyClone, Waltham Mass.) and 1% penicillin-streptomycin-fungizone (Thermo HyClone). 24 hours after addition, 25 uL of supernatant was removed and assayed for human IL-8 using the Meso Scale Discovery Human IL-8 Tissue Culture Kit (MSD, Rockville, Md.) per manufacturer's protocol. The results were analyzed using the Meso Scale Discovery SECTOR Imager 2400 and normalized to a titration of human IL-8 supplied by the MSD Kit.

S. aureus = test: Antibiotic sensitivity of S. aureus (OD600 / plating, FIGS. 9A-9C, 10); type: cell-based; details: log phase culture, OD600 over time, control kanamycin, 9B
Experimental: To determine the antibiotic sensitivity of S. aureus, cultures were grown overnight in tryptic soy broth (Cellgro). The resulting cultures were used to inoculate new cultures to ensure log phase growth prior to the start of the experiment. Once the bacteria had reached log phase the bacteria was diluted to the appropriate OD600˜0.05 and transferred to a 24-well plate. Compounds of interest were added and plates were incubated in a shaking incubator at 37° C. Aliquots were removed at various time points and their respective OD600 was measured using a BioTek Synergy2 microplate reader (BioTek, Winooski, Vt.). For wells whose turbidity was affected by the addition of the compounds of interest, aliquots were removed and plated on tryptic soy agar (Cellgro) and incubated overnight in a 37° C. incubated and counted the following day. Thus, it should be appreciated that the calcium flux agonists are effective in antimicrobial treatments via an indirect effect, most likely due to the enhanced production of IL-8 and increased NF-κB-driven transcription.

| Structure (SMILES) | NF-κB reporter response to S. aureus conditioned/spent media [1] | activation of NF-κB signaling [2] | IL-8 production (THP-1 cells) | direct antibiotic effect against S. aureus (S. aureus) |
| --- | --- | --- | --- | --- |
| CNc1ccc2oc(C[C@H]3O[C@@]4(CC[C@H]3C)O[C@H]([C@H](C)C(=O)c3ccc[nH]3)[C@H](C)C[C@H]4C)nc2c1C(=O)O [A23187, calcimycin] | significantly enhanced | significant increases | significant increases | some direct antibiotic effect |
| C[C@H](CCC(=O)O)C[C@H](C)C[C@H](C)C(=O)/C=C(\O)[C@H](C)C[C@H](C)C/C=C/[C@@H](C)[C@@H](O)[C@@H](C)[C@@H](O)C[C@@H]1CC[C@@](C)([C@H]2CC[C@@](C)([C@@H](C)O)O2)O1 [ionomycin] | significantly enhanced | significant increases | significant increases | some direct antibiotic effect |
| C/C=C(/C)C(=O)O[C@H]1C(C)=C2[C@H]([C@@H]1OC(=O)CCCCCCC)[C@@](C)(OC(C)=O)C[C@H](OC(=O)CCC)[C@@]1(O)[C@H]2OC(=O)[C@@]1(C)O [thapsigargin] | significantly enhanced | significant increases | significant increases | lack of direct antibiotic effect |
